Reference: patent publication US20080057044A1, “Lactobacillus Plantarum with Body-Fat Reducing Activity and the Foods Containing Them” (priority 2004, published 2008)

tested on: Lactobacillus plantarum Strain PL62; experiment: Antibiotic resistance (diameter of growth inhibition); assay type: cell-based; conditions: not given
From the text: The stronger antibiotic resistance a probiotic has, the higher survivability within the intestines is. Thus, the stronger an antibiotic resistance is, the better it is. However, if an antibiotic resistance is transferred, resistance problems may be brought about. It was confirmed whether an antibiotic resistance was transferred to other bacteria or not.

| Compound | Diameter (mm) of growth inhibition [mm] |
| --- | --- |
| CC1(C)S[C@@H]2[C@H](NC(=O)[C@H](N)c3ccccc3)C(=O)N2[C@H]1C(=O)O [Ampicillin] | 34 |
| CC1(C)S[C@@H]2[C@H](NC(=O)C(C(=O)O)c3ccccc3)C(=O)N2[C@H]1C(=O)O (some centres unmarked) [Carbenicillin] | 29 |
| CCN1CCN(C(=O)N[C@@H](C(=O)N[C@@H]2C(=O)N3C(C(=O)O)=C(CSc4nnnn4C)CS[C@H]23)c2ccc(O)cc2)C(=O)C1=O [Cefoperazone] | 22 |
| CC(=O)OCC1=C(C(=O)O)N2C(=O)[C@@H](NC(=O)Cc3cccs3)[C@H]2SC1 [Cephalothin] | 25 |
| O=C(N[C@H](CO)[C@H](O)c1ccc([N+](=O)[O-])cc1)C(Cl)Cl [Chloramphenicol] | 30 |
| CCC[C@@H]1C[C@@H](C(=O)N[C@@H]([C@H]2O[C@H](SC)[C@H](O)[C@@H](O)[C@H]2O)[C@H](C)Cl)N(C)C1 [Clindamycin] | 20 |
| CC[C@H]1OC(=O)[C@H](C)[C@@H](O[C@H]2C[C@@](C)(OC)[C@@H](O)[C@H](C)O2)[C@H](C)[C@@H](O[C@@H]2O[C@H](C)C[C@H](N(C)C)[C@H]2O)[C@](C)(O)C[C@@H](C)C(=O)[C@H](C)[C@@H](O)[C@]1(C)O [Erythromycin] | 32 |
| Cc1onc(-c2ccccc2)c1C(=O)N[C@@H]1C(=O)N2[C@@H]1SC(C)(C)[C@@H]2C(=O)O [Oxacillin] | 11 |
| CCN1CCN(C(=O)N[C@@H](C(=O)N[C@@H]2C(=O)N3[C@@H]2SC(C)(C)[C@@H]3C(=O)O)c2ccccc2)C(=O)C1=O [Piperacilin] | 37 |
| CO[C@H]1/C=C/O[C@@]2(C)Oc3c(C)c(O)c4c(O)c(c(/C=N/N5CCN(C)CC5)c(O)c4c3C2=O)NC(=O)/C(C)=C\C=C\[C@H](C)[C@H](O)[C@@H](C)[C@@H](O)[C@@H](C)[C@H](OC(C)=O)[C@@H]1C [Rifampin] | 24 |
| [H]/N=C(/N)N[C@H]1[C@H](O)[C@@H](O)[C@H](O[C@@H]2O[C@@H](C)[C@](O)(C=O)[C@H]2O[C@@H]2O[C@@H](CO)[C@H](O)[C@@H](O)[C@@H]2NC)[C@@H](N/C(N)=N\[H])[C@@H]1O [Streptomycin] | 8 |
| CN(C)[C@@H]1C(O)=C(C(N)=O)C(=O)[C@@]2(O)C(O)=C3C(=O)c4c(O)cccc4[C@@](C)(O)[C@H]3C[C@@H]12 [Tetracycline] | 24 |
| CN[C@H](CC(C)C)C(=O)N[C@H]1C(=O)N[C@@H](CC(N)=O)C(=O)N[C@H]2C(=O)N[C@H]3C(=O)N[C@H](C(=O)N[C@H](C(=O)O)c4cc(O)cc(O)c4-c4cc3ccc4O)[C@H](O)c3ccc(c(Cl)c3)Oc3cc2cc(c3O[C@@H]2O[C@H](CO)[C@@H](O)[C@H](O)[C@H]2O[C@H]2C[C@](C)(N)[C@H](O)[C@H](C)O2)Oc2ccc(cc2Cl)[C@H]1O [Vancomycin] | 6 |
| Gentamicin | 12 |
| Penicillin | 29 |
| Trimethpprime/sulfamethoxasole | 28 |

tested on: overweight people; experiment: not given; conditions: 180 overweight people, one year; cited from earlier work

| Compound | weight loss |
| --- | --- |
| conjugated linoleic acid [CLA] | 4-10% |
